Data as given in patent publication US8263606B2 (Xenon Pharmaceuticals Inc., priority 2008, dated 2012).

Columns and labels:
CYP3A4 = CYP3A4 (Homo sapiens, UniProt P08684); test: Cytochrome P450 (CYP450) Inhibition Assay, CYP3A4 (Vivid fluorescence, BOMCC substrate); conditions: human, P450 Baculosomes (recombinant CYP3A4), probe BOMCC (Vivid substrate)
sodium channel = test: Guanidine influx assay (14C-guanidine radiotracer flux, in vitro); type: cell-based, human or rat; conditions: guanidine influx assay using a known cell line that expresses a sodium channel
Method in brief: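 IC50 derives from a four-parameter logistic fit of 14C-guanidine uptake, test agent serially half-diluted around a 1 μM midpoint. Flux was driven by aconitine in low-sodium HEPES/choline saline at ambient temperature, using endogenous or recombinant human or rat sodium-channel cell lines plated ~100,000/well for 20–24 h.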

[1] = system: inactivated state of the channel of interest (sodium channel); test: Electrophysiological assay (whole cell voltage clamp, in vitro); type: cell-based; conditions: affinity for the inactivated state of the channel of interest
Description: Cells expressing the channel of interest are cultured in DMEM growth media (Gibco) with 0.5 mg/mL G418, +/−1% PSG, and 10% heat-inactivated fetal bovine serum at 37° C. and 5% CO2. For electrophysiological recordings, cells are plated on 10 mm dishes.
Whole cell recordings are examined by established methods of whole cell voltage clamp (Bean et al., op. cit.) using an Axopatch 200B amplifier and Clampex software (Axon Instruments, Union City, Calif.). All experiments are performed at ambient temperature. Electrodes are fire-polished to resistances of 2-4 Mohms Voltage errors and capacitance artifacts are minimized by series resistance compensation and capacitance compensation, respectively. Data are acquired at 40 kHz and filtered at 5 kHz. The external (bath) solution consists of: NaCl (140 mM), KCl (5 mM), CaCl2 (2 mM), MgCl2 (1 mM), HEPES (10 mM) at pH 7.4. The internal (pipette) solution consists of (in mM): NaCl (5), CaCl2 (0.1), MgCl2 (2), CsCl (10), CsF (120), HEPES (10), EGTA (10), at pH 7.2.
To estimate the steady-state affinity of compounds for the resting and inactivated state of the channel (Kr and Ki, respectively), 12.5 ms test pulses to depolarizing voltages from −60 to +90 mV from a holding potential of −120 m V is used to construct current-voltage relationships (I-V curves). A voltage near the peak of the IV-curve (−30 to 0 m V) is used as the test pulse throughout the remainder of the experiment. Steady-state inactivation (availability) curves are then constructed by measuring the current activated during a 8.75 ms test pulse following 1 second conditioning pulses to potentials ranging from −120 to −10 m V.
The steady-state voltage-dependence of binding of a compound to a sodium channel is determined by measuring the blockage of the ionic current at two holding potentials. Binding to rested-state channels is determined by using a holding potential of −120 mV, so that maximal availability is achieved. Binding to inactivated-state channels is evaluated at a holding potential such that only 10% of the channels are available to open. The membrane potential is held at this voltage for at least 10 seconds so that drug binding can equilibrate.
The apparent dissociation constant at each voltage is calculated with the equation:
[formula] where Kd is the dissociation constant (either Kr or Ki), and [Drug] is the concentration of the test compound.
The Example numbers provided in Table 3 correspond to the Examples herein: […]

Chain of CYP3A4 (P08684 whole entry): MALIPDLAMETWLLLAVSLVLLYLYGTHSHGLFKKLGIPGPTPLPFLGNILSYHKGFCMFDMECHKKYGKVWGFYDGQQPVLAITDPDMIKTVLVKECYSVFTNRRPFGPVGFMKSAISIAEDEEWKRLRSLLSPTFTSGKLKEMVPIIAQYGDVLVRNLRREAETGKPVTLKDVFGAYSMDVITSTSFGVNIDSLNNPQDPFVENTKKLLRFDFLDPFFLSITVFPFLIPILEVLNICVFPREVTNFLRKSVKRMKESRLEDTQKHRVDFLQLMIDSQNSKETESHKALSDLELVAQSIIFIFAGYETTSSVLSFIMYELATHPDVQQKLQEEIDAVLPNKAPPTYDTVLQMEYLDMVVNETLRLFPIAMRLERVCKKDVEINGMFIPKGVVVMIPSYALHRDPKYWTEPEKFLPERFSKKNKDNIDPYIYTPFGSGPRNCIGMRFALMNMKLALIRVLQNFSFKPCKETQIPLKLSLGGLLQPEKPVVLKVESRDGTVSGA

Row | inhibition at 10 µM (CYP3A4) [%] | IC50 (sodium channel; activity level class) [nM] | melting point [°C] | IC50 (sodium channel) [nM] | Structure (SMILES) | Ki [1] [nM]
1 | < 50 | 1000 to 10000 | 185 to 186 | – | COc1cc2c(cc1C#N)C1(CO2)C(=O)Nc2ccccc21 (centres unmarked) [Example 3.29, 6-methoxy-2′-oxo-1′,2′-dihydrospiro[1-benzofuran-3,3′-indole]-5-carbonitrile] | > 300
2 | > 50 | 1 to 100 | 53 to 56 | – | O=C1N(Cc2ccc(C(F)(F)F)o2)c2ccccc2[C@]12COc1cc3c(cc12)OCCO3 [Example 4.50, (S)-1′-{[5-(trifluoromethyl)furan-2-yl]methyl}-2,3-dihydrospiro[furo[2,3-g][1,4]benzodioxine-8,3′-indol]-2′(1′H)-one] | < 300
3 | > 50 | 100 to 1000 | 243 to 246 | – | O=C1Nc2cccc(-c3ccc(Oc4ccccc4)cc3)c2C12COc1cc3c(cc12)OCCO3 (centres unmarked) [Example 3.35, 4′-(4-phenoxyphenyl)-2,3-dihydrospiro[furo[2,3-g][1,4]benzodioxine-8,3′-indol]-2′(1′H)-one] | > 300
4 | < 50 | 1 to 100 | 158 to 160 | – | O=C1N(Cc2ccncn2)c2ccccc2C12COc1cc3c(cc12)CCO3 (centres unmarked) [Example 9.6, 1-(pyrimidin-4-ylmethyl)-5,6-dihydrospiro[benzo[1,2-b:5,4-b′]difuran-3,3′-indol]-2′(1′H)-one] | > 300
5 | < 50 | 1 to 100 | 90 to 91 | – | COCCOCCN1C(=O)C2(COc3cc4c(cc32)OCCO4)c2ccccc21 (centres unmarked) [Example 9.20, 1′-[2-(2-methoxyethoxy)ethyl]-2,3-dihydrospiro[furo[2,3-g][1,4]benzodioxine-8,3′-indol]-2′(1′H)-one] | < 300
6 | > 50 | 1000 to 10000 | > 250 | – | COc1cc2c(cc1C)C1(CO2)C(=O)Nc2ccccc21 (centres unmarked) [Example 3, 6-methoxy-5-methylspiro[1-benzofuran-3,3′-indol]-2′(1′H)-one] | > 300
7 | < 50 | 100 to 1000 | 256 to 258 | – | O=C1N(Cc2ccc(O)cn2)c2ccccc2[C@]12COc1cc3c(cc12)OCCO3 [Example 1.13, (8S)-1′-[(5-hydroxypyridin-2-yl)methyl]-2,3-dihydrospiro[furo[2,3-g][1,4]benzodioxine-8,3′-indol]-2′(1′H)-one] | < 300
8 | < 50 | 1000 to 10000 | 146 to 148 | – | COCCOCCN1C(=O)C2(COc3cc4c(cc32)OCCO4)c2cc3c(cc21)OCCO3 (centres unmarked) [Example 2.65, 6-[2-(2-methoxyethoxy)ethyl]-2,2′,3,3′-tetrahydrospiro[1,4-dioxino[2,3-f]indole-8,8′-furo[2,3-g][1,4]benzodioxin]-7(6H)-one] | > 300
9 | < 50 | 1000 to 10000 | 154 to 156 | – | O=C1N(Cc2ccccn2)c2ccccc2[C@@]12COc1cc3c(cc12)CCO3 [Example 5.4, (3R)-1-(pyridin-2-ylmethyl)-5,6-dihydrospiro[benzo[1,2-b:5,4-b′]difuran-3,3′-indol]-2′(1′H)-one] | > 300
10 | > 50 | 1 to 100 | 142 to 143 | – | Cc1noc2cc3c(cc12)C1(CO3)C(=O)N(Cc2ccccn2)c2ccccc21 (centres unmarked) [Example 9.24, 3-methyl-1′-(pyridin-2-ylmethyl)spiro[furo[3,2-f][1,2]benzisoxazole-5,3′-indol]-2′(1′H)-one] | > 300
11 | < 50 | 1 to 100 | 84 to 85 | – | O=C1N(Cc2ccccn2)c2ccccc2[C@]12COc1cc3c(cc12)CCO3 [Example 5.6, (3S)-1′-(pyridin-2-ylmethyl)-5,6-dihydrospiro[benzo[1,2-b:5,4-b′]difuran-3,3′-indol]-2′(1′H)-one] | > 300
12 | – | 1 to 100 | 198 to 200 | – | O=C1N(C[C@H]2COCCO2)c2ccccc2[C@]12COc1cc3c(cc12)OCCO3 [Example 8.7, (8S)-1′-[(2S)-1,4-dioxan-2-ylmethyl]-2,3-dihydrospiro[furo[2,3-g][1,4]benzodioxine-8,3′-indol]-2′(1′H)-one] | > 300
13 | < 50 | 1 to 100 | 158 to 166 | – | O=C1N(CC2CCCCO2)c2ccccc2C12COc1cc3c(cc12)OCCO3 (centres unmarked) [Example 4.38, 1′-(tetrahydro-2H-pyran-2-ylmethyl)-2,3-dihydrospiro[furo[2,3-g][1,4]benzodioxine-8,3′-indol]-2′(1′H)-one] | < 300
14 | > 50 | 1 to 100 | 129 to 130 | – | CCCCCN1C(=O)C2(COc3cc4c(cc32)OCCO4)c2ccccc21 (centres unmarked) [Example 8.4, 1′-pentyl-2,3-dihydrospiro[furo[2,3-g][1,4]benzodioxine-8,3′-indol]-2′(1′H)-one] | < 300
15 | > 50 | 1000 to 10000 | 68 to 70 | – | O=C1N(Cc2ccc(C(F)(F)F)o2)c2ccccc2[C@@]12COc1cc3c(cc12)CCO3 [Example 5.5, (3R)-1′-{[5-(trifluoromethyl)furan-2-yl]methyl}-5,6-dihydrospiro[benzo[1,2-b:5,4-b′]difuran-3,3′-indol]-2′(1′H)-one] | > 300
16 | < 50 | 1 to 100 | – | – | O=C1N(C[C@H]2CCCO2)c2ccccc2C12COc1cc3c(cc12)CCO3 (stereo partly drawn) [Example 4.3, 1′-[(2R)-tetrahydrofuran-2-ylmethyl]-5,6-dihydrospiro[benzo[1,2-b:5,4-b′]difuran-3,3′-indol]-2′(1′H)-one] | > 300
17 | < 50 | 100 to 1000 | – | – | O=C1N(Cc2ncccc2C(F)(F)F)c2ccccc2[C@@]12COc1cc3c(cc12)OCCO3 [Example 7.15] | > 300
18 | < 50 | 100 to 1000 | – | – | O=C1N(CC2CCOC2)c2ccccc2C12COc1cc3c(cc12)CCO3 (centres unmarked) [Example 4.16, 1′-(tetrahydrofuran-3-ylmethyl)-5,6-dihydrospiro[benzo[1,2-b:5,4-b′]difuran-3,3′-indol]-2′(1′H)-one] | > 300
19 | > 50 | – | – | 1000 to 10000 | O=C1N(C[C@H]2CCCO2)c2cccc(-c3cncnc3)c2C12COc1cc3c(cc12)CCO3 (stereo partly drawn) [Example 16.10, 4′-pyrimidin-5-yl-1′-[(2R)-tetrahydrofuran-2-ylmethyl]-5,6-dihydrospiro[benzo[1,2-b:5,4-b′]difuran-3,3′-indol]-2′(1′H)-one] | > 300
20 | > 50 | – | – | 100 to 1000 | CN(C)c1ccc(-c2cccc3c2C2(COc4cc5c(cc42)CCO5)C(=O)N3C[C@H]2CCCO2)cn1 (stereo partly drawn) [Example 16, 4′-[6-(dimethylamino)pyridin-3-yl]-1′-[(2R)-tetrahydrofuran-2-ylmethyl]-5,6-dihydrospiro[benzo[1,2-b:5,4-b′]difuran-3,3′-indol]-2′(1′H)-one] | > 300
21 | < 50 | 1 to 100 | – | – | O=C1N(CC2COCCO2)c2ccccc2C12COc1cc3c(cc12)CCO3 (centres unmarked) [Example 4.8, 1′-(1,4-dioxan-2-ylmethyl)-5,6-dihydrospiro[benzo[1,2-b:5,4-b′]difuran-3,3′-indol]-2′(1′H)-one] | > 300
22 | < 50 | – | – | 100 to 1000 | CC(C)COc1ccc(-c2cccc3c2C2(COc4cc5c(cc42)CCO5)C(=O)N3C[C@H]2CCCO2)cc1 (stereo partly drawn) [Example 16.7, 4′-[4-(2-methylpropoxy)phenyl]-1′-[(2R)-tetrahydrofuran-2-ylmethyl]-5,6-dihydrospiro[benzo[1,2-b:5,4-b′]difuran-3,3′-indol]-2′(1′H)-one] | < 300
